Biological target: catalytic domain of human Bub1 (amino acids 704-1085) (Homo sapiens (Human), UniProt O43683)
Assay: Bub1 kinase assay (TR-FRET)
Assay type: biochemical
Details: 10 μM ATP, 1 μM peptide substrate; read-out: Biological Assay 1: Bub1 kinase assay median IC50
Experimental: To this end, 100-fold concentrated compound solutions (in DMSO) were previously prepared by serial dilution (1:3.4) of 2 mM stocks in a clear low volume 384-well source microtiter plate (Greiner Bio-One, Frickenhausen, Germany), from which 50 nl of compounds were transferred into a black low volume test microtiter plate from the same supplier. […] The resulting mixture (5 μl final volume) was incubated at 22° C. during 60 min., and the reaction was stopped by the addition of 5 μl of an aqueous EDTA-solution (50 mM EDTA, in 100 mM HEPES pH 7.5 and 0.2% (w/v) bovine serum albumin) which also contained the TR-FRET detection reagents (0.2 μM streptavidin-XL665 [Cisbio Bioassays, Codolet, France] and 1 nM anti-phosho-Serine antibody [Merck Millipore, cat. #35-001] and 0.4 nM LANCE EU-W1024 labeled anti-mouse IgG antibody [Perkin-Elmer, product no. AD0077, alternatively a Terbium-cryptate-labeled anti-mouse IgG antibody from Cisbio Bioassays can be used]). The stopped reaction mixture was further incubated 1 h at 22° C. in order to allow the formation of complexes between peptides and detection reagents. Subsequently, the amount of product was evaluated by measurement of the resonance energy transfer from the Eu-chelate-antlbody complex recognizing the Phosphoserlne residue to the streptavidin-XL665 bound to the biotin moiety of the peptide. […] IC50 values were calculated by fitting the normalized inhibition data to a 4-parameter logistic equation (Minimum, Maximum, IC50, Hill; Y=Max+(Min−Max)/(1+(X/IC50)Hill)) using a Bayer-proprietary analysis software.

Chain of catalytic domain of human Bub1 (amino acids 704-1085) (O43683 704-1085): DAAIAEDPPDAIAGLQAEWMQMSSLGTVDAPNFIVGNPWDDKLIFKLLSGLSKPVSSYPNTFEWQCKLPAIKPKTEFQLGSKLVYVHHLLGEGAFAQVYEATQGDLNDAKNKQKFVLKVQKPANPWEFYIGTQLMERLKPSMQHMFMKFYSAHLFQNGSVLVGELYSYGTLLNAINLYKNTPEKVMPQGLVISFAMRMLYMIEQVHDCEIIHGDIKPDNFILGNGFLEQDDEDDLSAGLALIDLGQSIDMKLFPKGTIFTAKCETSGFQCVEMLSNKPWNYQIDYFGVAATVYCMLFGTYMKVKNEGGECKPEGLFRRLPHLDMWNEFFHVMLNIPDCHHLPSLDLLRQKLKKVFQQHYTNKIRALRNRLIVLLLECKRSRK

IC50 [nM] | SMILES
25 | COc1cnc(-c2nn(Cc3cccc(-c4noc(C)n4)c3)c3ccccc23)nc1Nc1ccncc1 [Example 2-2-3, 5-methoxy-2-{1-[3-(5-methyl-1,2,4-oxadiazol-3-yl)benzyl]-1H-indazol-3-yl}-N-(pyridin-4-yl)pyrimidin-4-amine]
3500 | COc1cnc(-c2nn(Cc3c(F)ccc(OC)c3F)c3ccccc23)nc1N(Cc1c(F)ccc(OC)c1F)c1ccncc1 [Example 2-4-2, N-(2,6-difluoro-3-methoxybenzyl)-2-[1-(2,6-difluoro-3-methoxybenzyl)-1H-indazol-3-yl]-5-methoxy-N-(pyridin-4-yl)pyrimidin-4-amine]
9300 | CCOc1cc(F)c(CN(c2ccncc2)c2nc(-c3nn(Cc4c(F)cc(OCC)cc4F)c4ccccc34)ncc2OC)c(F)c1 [Example 2-5-2, N-(4-ethoxy-2,6-difluorobenzyl)-2-[1-(4-ethoxy-2,6-difluorobenzyl)-1H-indazol-3-yl]-5-methoxy-N-(pyridin-4-yl)pyrimidin-4-amine]
210 | COc1cnc(-c2nn(Cc3c(F)cccc3F)c3ccccc23)nc1N(Cc1c(F)cccc1F)c1ccncc1 [Example 2-7-2, N-(2,6-difluorobenzyl)-2-[1-(2,6-difluorobenzyl)-1H-indazol-3-yl]-5-methoxy-N-(pyridin-4-yl)pyrimidin-4-amine]
290 | COc1cnc(-c2nn(Cc3ccc(C)c(F)c3F)c3ccccc23)nc1N(Cc1ccc(C)c(F)c1F)c1ccncc1 [Example 2-8-2, N-(2,3-difluoro-4-methylbenzyl)-2-[1-(2,3-difluoro-4-methylbenzyl)-1H-indazol-3-yl]-5-methoxy-N-(pyridin-4-yl)pyrimidin-4-amine]
240 | COc1cnc(-c2nn(Cc3c(Cl)cccc3Cl)c3ccccc23)nc1N(Cc1c(Cl)cccc1Cl)c1ccncc1 [Example 2-9-2, N-(2,6-dichlorobenzyl)-2-[1-(2,6-dichlorobenzyl)-1H-indazol-3-yl]-5-methoxy-N-(pyridin-4-yl)pyrimidin-4-amine]
20000 | COc1cnc(-c2nn(Cc3ccc(SC(F)(F)F)cc3)c3ccccc23)nc1Nc1ccncc1 [Example 2-9-3, 5-methoxy-N-(pyridin-4-yl)-2-(1-{4-[(trifluoromethyl)sulfanyl]benzyl}-1H-indazol-3-yl)pyrimidin-4-amine]
1200 | COc1cnc(-c2nn(Cc3ccccc3Cl)c3ccccc23)nc1N(Cc1ccccc1Cl)c1ccncc1 [Example 2-10-2, N-(2-chlorobenzyl)-2-[1-(2-chlorobenzyl)-1H-indazol-3-yl]-5-methoxy-N-(pyridin-4-yl)pyrimidin-4-amine]
730 | CCOc1ccc(CN(c2ccncc2)c2nc(-c3nn(Cc4ccc(OCC)c(F)c4F)c4ccccc34)ncc2OC)c(F)c1F [Example 2-14-2, N-(4-ethoxy-2,3-difluorobenzyl)-2-[1-(4-ethoxy-2,3-difluorobenzyl)-1H-indazol-3-yl]-5-methoxy-N-(pyridin-4-yl)pyrimidin-4-amine]
3200 | COc1cnc(-c2nn(Cc3ccc(CC(=O)O)cc3F)c3ccccc23)nc1Nc1ccncc1 [Example 2-22-1, [3-fluoro-4-({3-[5-methoxy-4-(pyridin-4-ylamino)pyrimidin-2-yl]-1H-indazol-1-yl}methyl)phenyl]acetic acid]
6900 | COc1cnc(-c2nn(Cc3c(F)cc(OC(F)F)cc3F)c3ccccc23)nc1N(Cc1c(F)cc(OC(F)F)cc1F)c1ccncc1 [Example 2-39-2, N-[4-(difluoromethoxy)-2,6-difluorobenzyl]-2-{1-[4-(difluoromethoxy)-2,6-difluorobenzyl]-1H-indazol-3-yl}-5-methoxy-N-(pyridin-4-yl)pyrimidin-4-amine]
41 | COc1cnc(-c2nn(Cc3c(Cl)ccc([N+](=O)[O-])c3Cl)c3ccccc23)nc1Nc1ccncc1 [Example 2-44-1, 2-[1-(2,6-dichloro-3-nitrobenzyl)-1H-indazol-3-yl]-5-methoxy-N-(pyridin-4-yl)pyrimidin-4-amine]
110 | COc1cnc(-c2nn(Cc3cccc(C#N)c3)c3ccccc23)nc1Nc1ccncc1 [Example 2-45-1, 3-({3-[5-methoxy-4-(pyridin-4-ylamino)pyrimidin-2-yl]-1H-indazol-1-yl}methyl)benzonitrile]
1500 | COc1cnc(-c2nn(Cc3c(F)cccc3OC)c3ccccc23)nc1Nc1ccncc1 [Example 2-49-1, 2-[1-(2-fluoro-6-methoxybenzyl)-1H-indazol-3-yl]-5-methoxy-N-(pyridin-4-yl)pyrimidin-4-amine]
430 | OCC1(COc2cnc(-c3nn(Cc4ccccc4F)c4ccccc34)nc2N(CC2(CO)COC2)c2ccncc2)COC1 [Example 4-2-2, (3-{[(2-[1-(2-fluorobenzyl)-1H-indazol-3-yl]-5-{[3-(hydroxymethyl)oxetan-3-yl]methoxy}pyrimidin-4-yl)(pyridin-4-yl)amino]methyl}oxetan-3-yl)methanol]
330 | Fc1ccccc1Cn1nc(-c2ncc(OCCc3nnn[nH]3)c(N(CCc3nnn[nH]3)c3ccncc3)n2)c2ccccc21 [Example 4-5-2, 2-[1-(2-fluorobenzyl)-1H-indazol-3-yl]-N-(pyridin-4-yl)-5-[2-(1H-tetrazol-5-yl)ethoxy]-N-[2-(1H-tetrazol-5-yl)ethyl]pyrimidin-4-amine]
24 | CCOc1cc(F)c(Cn2nc(-c3ncc(OCC4CN(C(=O)OC(C)(C)C)CCO4)c(Nc4ccncc4)n3)c3ccccc32)c(F)c1 (centres unmarked) [Example 4-11, tert-butyl 2-[({2-[1-(4-ethoxy-2,6-difluorobenzyl)-1H-indazol-3-yl]-4-(pyridin-4-ylamino)pyrimidin-5-yl}oxy)methyl] morpholine-4-carboxylate]
210 | CC(C)(C)OC(=O)NCCOCCOc1cnc(-c2nn(Cc3ccccc3F)c3ccccc23)nc1Nc1ccncc1 [Example 4-20, tert-butyl {2-[2-({2-[1-(2-fluorobenzyl)-1H-indazol-3-yl]-4-(pyridin-4-ylamino)pyrimidin-5-yl}oxy)ethoxy]ethyl}carbamate]
9.8 | COc1cnc(-c2nn(Cc3ccc(C(C)(C)O)cc3Cl)c3ccccc23)nc1Nc1ccncc1 [Example 9-1, 2-[3-chloro-4-({3-[5-methoxy-4-(pyridin-4-ylamino)pyrimidin-2-yl]-1H-indazol-1-yl}methyl)phenyl]propan-2-ol]
20000 | COc1cnc(-c2nn(Cc3c(Cl)ccc(C(=O)O)c3Cl)c3ccccc23)nc1Nc1ccncc1 [Example 19-1, 2,4-dichloro-3-({3-[5-methoxy-4-(pyridin-4-ylamino)pyrimidin-2-yl]-1H-indazol-1-yl}methyl)benzoic acid]
6700 | CNC(=O)c1cc(F)c(Cn2nc(-c3ncc(OC)c(Nc4ccncc4)n3)c3ccccc32)c(F)c1 [Example 20-6, 3,5-difluoro-4-({3-[5-methoxy-4-(pyridin-4-yla-mino)pyrimidin-2-yl]-1H-indazol-1-yl}methyl)-N-methylbenzamide]
770 | OCC1COc2cnc(-c3nn(Cc4ccccc4F)c4ccccc34)nc2N1c1ccncc1 (centres unmarked) [Example 22-1, {2-[1-(2-fluorobenzyl)-1H-indazol-3-yl]-8-(pyridin-4-yl)-7,8-dihydro-6H-pyrimido[5,4-b][1,4]oxazin-7-yl}methanol]
4280 | COc1cnc(-c2nn(Cc3ccccc3F)c3ccccc23)nc1N(c1ccncc1)c1ccncc1 [Example 24-4]
11 | CCOc1cc(F)c(Cn2nc(-c3ncc(OC)c(Nc4ccncc4C#N)n3)c3ccccc32)c(F)c1 [Example 24-5, 4-({2-[1-(4-ethoxy-2,6-difluorobenzyl)-1H-indazol-3-yl]-5-methoxypyrimidin-4-yl}amino)pyridine-3-carbonitrile]

SMILES | IC50 [nM]
COc1cnc(-c2nn(Cc3cccc(-n4cccc4)c3)c3ccccc23)nc1Nc1ccncc1 [Example 2-1-3, 5-methoxy-N-(pyridin-4-yl)-2-{1-[3-(1H-pyrrol-1-yl)benzyl]-1H-indazol-3-yl}pyrimidin-4-amine] | 120
COc1cnc(-c2nn(Cc3ccccc3Br)c3ccccc23)nc1N(Cc1ccccc1Br)c1ccncc1 [Example 2-21-2, N-(2-bromobenzyl)-2-[1-(2-bromobenzyl)-1H-indazol-3-yl]-5-methoxy-N-(pyridin-4-yl)pyrimidin-4-amine] | 20000
COc1cc(C(F)(F)F)ccc1Cn1nc(-c2ncc(OC)c(Nc3ccncc3)n2)c2ccccc21 [Example 2-47-1, 5-methoxy-2-{1-[2-methoxy-4-(trifluoromethyl)benzyl]-1H-indazol-3-yl}-N-(pyridin-4-yl)pyrimidin-4-amine] | 2400
CCOc1cc(F)c(Cn2nc(-c3ncc(OC[C@@H]4CCC(=O)N4)c(Nc4ccncc4)n3)c3ccccc32)c(F)c1 [Example 4-18, formic acid - (5S)-5-[({2-[1-(4-ethoxy-2,6-difluorobenzyl)-1H-indazol-3-yl]-4-(pyridin-4-ylamino)pyrimidin-5-yl}oxy)methyl] pyrrolidin-2-one (1:1)] | 12
COC(=O)c1cnccc1Nc1nc(-c2nn(Cc3ccccc3F)c3ccccc23)ncc1OC [Example 24-2, methyl 4-({2-[1-(2-fluorobenzyl)-1H-indazol-3-yl]-5-methoxypyrimidin-4-yl}amino)pyridine-3-carboxylate] | 20000

Source: patent US10266548B2, “Substituted benzylindazoles for use as Bub1 kinase inhibitors in the treatment of hyperproliferative diseases” (Bayer Intellectual Property GmbH, priority 2011, dated 2019)
